According to patent publication US20240158446A1, “CYCLIC COMPOUND HAVING SELECTIVE INHIBITORY ACTION ON KRAS OVER HRAS AND NRAS” (CHUGAI SEIYAKU KABUSHIKI KAISHA, priority 2021, published 2024):

What was measured:
[1] = biological target: GDP-bound KRAS wild-type protein (Homo sapiens, UniProt P01116); test: Binding to KRAS by surface plasmon resonance (SPR), Single Cycle Kinetics; conditions: SPR Single Cycle Kinetics, GDP-bound KRAS wild-type protein, 1:1 binding model; read-out: KRAS KD
[2] = biological target: GDP-bound NRAS wild-type protein (Homo sapiens, UniProt P01111); test: Binding to NRAS by surface plasmon resonance (SPR), Single Cycle Kinetics; conditions: SPR, GDP-bound NRAS wild-type protein vs GDP-bound KRAS wild-type protein
[3] = biological target: GDP-bound HRAS wild-type protein (Homo sapiens, UniProt P01112); test: Binding to HRAS by surface plasmon resonance (SPR), Single Cycle Kinetics; conditions: SPR, GDP-bound HRAS wild-type protein vs GDP-bound KRAS wild-type protein
Chain of GDP-bound HRAS wild-type protein (P01112 whole entry): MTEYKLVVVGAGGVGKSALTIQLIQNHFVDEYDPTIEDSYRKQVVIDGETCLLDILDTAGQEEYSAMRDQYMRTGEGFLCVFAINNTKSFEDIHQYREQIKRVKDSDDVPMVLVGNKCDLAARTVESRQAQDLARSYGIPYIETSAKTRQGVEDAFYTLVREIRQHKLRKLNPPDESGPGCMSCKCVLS

Chain of GDP-bound KRAS wild-type protein (P01116 whole entry): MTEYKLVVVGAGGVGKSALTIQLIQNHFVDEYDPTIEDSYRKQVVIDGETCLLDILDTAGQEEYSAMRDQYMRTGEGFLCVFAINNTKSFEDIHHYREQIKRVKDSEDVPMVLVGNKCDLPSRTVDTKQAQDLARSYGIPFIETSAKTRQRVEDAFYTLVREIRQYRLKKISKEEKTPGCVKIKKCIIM
Chain of GDP-bound NRAS wild-type protein (P01111 whole entry): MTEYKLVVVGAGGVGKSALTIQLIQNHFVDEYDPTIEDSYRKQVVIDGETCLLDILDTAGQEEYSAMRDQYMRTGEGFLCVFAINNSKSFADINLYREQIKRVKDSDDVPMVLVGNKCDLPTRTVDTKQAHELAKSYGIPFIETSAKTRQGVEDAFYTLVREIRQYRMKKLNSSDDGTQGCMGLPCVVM

Structure (SMILES)	Kd [1] [nM]	NRAS/KRAS (ratio of KD value with respect to NRAS to KD value with respect to KRAS) [2]	HRAS/KRAS (ratio of KD value with respect to HRAS to KD value with respect to KRAS) [3]
CCO[C@@H]1C[C@H]2C(=O)NC3(CCC3)C(=O)N(C)[C@@H](C3CCCC3)C(=O)N(C)[C@H](C(=O)N(C)C)CC(=O)N(C)[C@@H](COC)C(=O)N[C@@H]([C@@H](C)CC)C(=O)N(C)CC(=O)N(C)[C@H]3CCCCCN(C3=O)[C@@H](Cc3ccc(C(F)(F)F)cc3)C(=O)N(C)CC(=O)N[C@@H](CCc3cc(F)c(C(F)(F)F)c(F)c3)C(=O)N2C1 [PP0674]	0.16	B (a compound having 3 or more and less than 10 is denoted as B)	B (a compound having 3 or more and less than 10 is denoted as B)
CCO[C@@H]1C[C@H]2C(=O)NC3(CCC3)C(=O)N(C)[C@@H](C3CCCC3)C(=O)N(C)[C@H](C(=O)N3CCOCC3)CC(=O)N(C)[C@@H](CC)C(=O)N[C@@H]([C@@H](C)CC)C(=O)N(C)CC(=O)N(C)[C@H]3CCCCCN(C3=O)[C@@H](Cc3ccc(C(F)(F)F)cc3)C(=O)N(C)CC(=O)N[C@@H](CCc3cc(F)c(C(F)(F)F)c(F)c3)C(=O)N2C1 [PP0678]	0.47	B (a compound having 3 or more and less than 10 is denoted as B)	B (a compound having 3 or more and less than 10 is denoted as B)
CCC[C@H]1C(=O)N[C@@H]([C@@H](C)CC)C(=O)N(C)CC(=O)N(C)[C@H]2CCCCCN(C2=O)[C@@H](Cc2ccc(C(F)(F)F)cc2)C(=O)N(C)CC(=O)N[C@@H](CCc2cc(F)c(C(F)(F)F)c(F)c2)C(=O)N2C[C@H](OCC)C[C@H]2C(=O)NC2(CCC2)C(=O)N(C)[C@@H](C2CCCC2)C(=O)N(C)[C@H](C(=O)N2CCOCC2)CC(=O)N1C [PP0679]	0.58	B (a compound having 3 or more and less than 10 is denoted as B)	B (a compound having 3 or more and less than 10 is denoted as B)
C#CC[C@H]1C(=O)N[C@@H]([C@@H](C)CC)C(=O)N(C)CC(=O)N(C)[C@H]2CCCCCN(C2=O)[C@@H](Cc2ccc(C(F)(F)F)cc2)C(=O)N(C)CC(=O)N[C@@H](CCc2cc(F)c(C(F)(F)F)c(F)c2)C(=O)N2C[C@H](OCC)C[C@H]2C(=O)NC2(CCC2)C(=O)N(C)[C@@H](C2CCCC2)C(=O)N(C)[C@H](C(=O)N2CCOCC2)CC(=O)N1C [PP0681]	0.44	B (a compound having 3 or more and less than 10 is denoted as B)	B (a compound having 3 or more and less than 10 is denoted as B)
CCO[C@@H]1C[C@H]2C(=O)NC3(CCC3)C(=O)N(C)[C@@H](C3CCCC3)C(=O)N(C)[C@H](C(=O)N3CCOCC3)CC(=O)N(C)[C@@H](COC)C(=O)N[C@@H]([C@@H](C)CC)C(=O)N(C)CC(=O)N(C)[C@H]3CCCCCN(C3=O)[C@@H](Cc3ccc(C(F)(F)F)cc3)C(=O)N(C)CC(=O)N[C@@H](CCc3cc(F)c(C(F)(F)F)c(F)c3)C(=O)N2C1 [PP0689]	0.3	B (a compound having 3 or more and less than 10 is denoted as B)	B (a compound having 3 or more and less than 10 is denoted as B)
CCO[C@@H]1C[C@H]2C(=O)NC3(CCC3)C(=O)N(C)[C@@H](C3CCCC3)C(=O)N(C)[C@H](C(=O)N3CCOCC3)CC(=O)N(C)[C@@H](CCOC)C(=O)N[C@@H]([C@@H](C)CC)C(=O)N(C)CC(=O)N(C)[C@H]3CCCCCN(C3=O)[C@@H](Cc3ccc(C(F)(F)F)cc3)C(=O)N(C)CC(=O)N[C@@H](CCc3cc(F)c(C(F)(F)F)c(F)c3)C(=O)N2C1 [PP0690]	0.46	B (a compound having 3 or more and less than 10 is denoted as B)	B (a compound having 3 or more and less than 10 is denoted as B)
